Experimental data from US20110130413A1, “SUBSTITUTED QUINAZOLINES” (Shire LLC, priority 2008, published 2011).
In brackets after ≈: the same amount, converted by molar mass. Several values for one entry are separate records, joined by “and”; a condition that tells them apart may be missing. Equal values may be shown once. Marks after values point to notes of the source that are not given here.

Key:
[1] = Solubility; assay type: physicochemical
[2] = Comparative bioavailability study in the dog; assay type: in vivo
From the text: The potential benefit of improved water solubility on the absorption of these open-ring analogues was shown in a comparative bioavailability study in the dog. Using the unsubstituted ethyl-5,6-dichloro-3,4-dihydro-2-(1H)-iminoquinazoline-3-acetate HBr as a model compound, a comparison was made of the systemic availability of anagrelide when given as this compound or as anagrelide itself in equimolar doses ([…]).

[3] = test system: PDEIII; experiment: PDEIII inhibition; assay type: biochemical; details: more potent than anagrelide itself
[4] = Conversion of ring open prodrug to anagrelide in human plasma (LC/MS-MS); assay type: in vitro ADME; details: human plasma spiked 100 ng/mL, room temperature, first point of measurement (immediately after mixing)
Experimental: Such prodrugs are likely to be extremely rapidly and completely cyclised in plasma to the closed ring 3-alkylanagrelide analogues. […] Human plasma was spiked with anagrelide prodrug (final concentration 100 ng/mL). Immediately after mixing, and at 15, 30, 45 and 60 minutes afterward samples were analysed for anagrelide prodrug and anagrelide.

[5] = male dogs, single oral (capsule), anagrelide 6.1 mg/kg or ester prodrug 7.5 mg/kg, individual dogs
[6] = male dogs, single oral (capsule), anagrelide 6.1 mg/kg or ester prodrug 7.5 mg/kg, individual dogs, listed as Ester prodrug of anagrelide, HBr
[7] = male dogs, single oral (capsule), anagrelide 6.1 mg/kg or ester prodrug 7.5 mg/kg, median

O=C1CN2Cc3c(ccc(Cl)c3Cl)N=C2N1 [anagrelide, 6,7-dichloro-1,5-dihydroimidazo[2,1-b]-quinazolin-2(3H)-one]
solubility ([1]; aqueous solution, aqueous buffer, at pH 11.4): ~1000 µg/mL (≈ 3900 µM)
solubility ([1]; aqueous solution, aqueous buffer, pH range of 4-8): < 10 µg/mL
solubility ([1]; simulated gastric fluid, in 0.1M HCl): ~170 µg/mL (≈ 664 µM)
Tmax of anagrelide [2, 5]: 2 h
k of anagrelide [2, 5]: 0.4459 ^c hours^−1 and 0.3119 ^c hours^−1 and 0.1953 ^d hours^−1

O=C1NC2=Nc3ccc(Cl)c(Cl)c3CN2C1O (stereo not drawn) [3-hydroxyanagrelide]
potency as an inhibitor of PDEIII relative to anagrelide [3]: ~40 fold

Br.CCOC(=O)CN1Cc2c(ccc(Cl)c2Cl)NC1=N [ethyl-5,6-dichloro-3,4-dihydro-2-(1H)-iminoquinazoline-3-acetate HBr]
prodrug remaining in human plasma (conversion to anagrelide) [4]: no prodrug could be found
Cmax for anagrelide, range over dogs ([2]; dog, oral, equimolar doses): 170-418 ngmL^−1
t½ of 3-hydroxy anagrelide, calculated as ln2/(mean rate constant) ([2]; male dogs, single oral (capsule), anagrelide 6.1 mg/kg or ester prodrug 7.5 mg/kg): 2.1 ^e hours
AUCinfin of 3-hydroxy anagrelide [2, 6]: 1290 ^c ng · h/mL
AUCinfin of anagrelide [2, 6]: 1440 ^d ng · h/mL
k of 3-hydroxy anagrelide [2, 6]: 0.1235 ^c hours^−1
k of anagrelide [2, 6]: 0.1789 ^d hours^−1
t½ of 3-hydroxy anagrelide [2, 6]: 5.6 ^c hours
t½ of anagrelide [2, 6]: 3.9 ^d hours
Tmax of 3-hydroxy anagrelide, median [2, 7]: 3.5 ^b hours
Tmax of anagrelide, median [2, 7]: 3.5 ^b hours
t½ of anagrelide, calculated as ln2/(mean rate constant) ([2]; male dogs, single oral (capsule), ester prodrug 7.5 mg/kg): 1.8 ^f hours
